“And” between values parts separate entries of the source, which are not always exact repeats. Equal values may be shown once. Read-outs that look alike come from different tables or passages of the source.
Legend:
[1] = test system: mesophilic lactic acid bacteria Strain 3; conditions: 31° C.
Method: (§1) One litre of 2%-fat UHT milk was added to a previously sterilized 1200 ml fermentor vessel. Suspensions of yeast extract formulated with either iron pyrophosphate or iron sulfate were sterilized separately and added to the vessel to supply the milk with 0.02 wt % yeast extract and iron at a final amount of 2.4, 4.2 or 6 ppm.
(§2) Vessels were heated to 31° C., inoculated with freshly thawed culture concentrates and incubated for 7 hours under pH-control (pH between 5.9 and 6.1). After the incubation, the obtained starter culture was immediately cooled to a temperature below 8° C.
(§3) The obtained starter culture was tested for acidification activity by inoculating cold 2%-fat UHT-pasteurised milk with 3.0% (v/v) of the culture, incubating the inoculated milk for 2.5 hours at 31° C., and then measuring the change in pH of the milk versus non-inoculated milk. The experiment was done for five different mesophilic lactic acid bacteria strains.

[2] = test system: mesophilic lactic acid bacteria Strain 4; conditions: 31° C.
Method: as §1, §2, §3

[3] = test system: mesophilic lactic acid bacteria Strain 5; conditions: 31° C.
Method: as §1, §2, §3

[4] = test system: mesophilic lactic acid bacteria Strain 1; conditions: 31° C., in the absence of iron 1.18
Method: as §1, §2, §3

[5] = test system: mesophilic lactic acid bacteria Strain 2; conditions: 31° C., in the absence of iron 1.44
Method: as §1, §2, §3

strain 6 = experiment: Acidification activity of strain 6 bulk starter cultures at different iron and manganese concentrations; assay type: cell-based, mesophilic lactic acid bacteria
Method: The strains were fermented in sterilized production medium in a standard fermentation vessel. The fermentation was carried out by maintaining the pH between 6-6.5 with ammonia at a temperature of about 30° C. The culture was harvested after ammonia consumption was stabilized. The culture was cooled to a temperature of below 10° C. and centrifuged. A concentration factor (harvested broth over pellet volume) of 15-20 was obtained. The obtained concentrate was used for further testing, e.g. with the cell concentrates a series of bulk starter culture fermentations was performed. […] The bulk starter culture was prepared by fermenting the milk during 6 hours at 30° C. under pH-stat conditions. Ammonia was used to maintain the pH at 6.0-6.2. Samples (1.5 ml) of the cultures were taken after 5 and 6 hours fermentation. The samples were tested to establish the acidification activity of the culture under standard conditions. […] Several different final iron and manganese concentrations were used in this experiment. The bulk starter culture was prepared as described above with the proviso that the UHT milk was inoculated with 0.6 wt % cell concentrate.

[6] = test system: mesophilic lactic acid bacteria Strain 8; experiment: Acidification activity of bulk starter cultures with yeast extract, iron, manganese and/or molybdate, Strain 8; assay type: cell-based; conditions: YE 0.02 wt %, Fe, Mn, Mo 8 ppm each
Method: (§4) The strains were fermented in sterilized production medium in a standard fermentation vessel. The fermentation was carried out by maintaining the pH between 6-6.5 with ammonia at a temperature of about 30° C. The culture was harvested after ammonia consumption was stabilized. The culture was cooled to a temperature of below 10° C. and centrifuged. A concentration factor (harvested broth over pellet volume) of 15-20 was obtained. The obtained concentrate was used for further testing, e.g. with the cell concentrates a series of bulk starter culture fermentations was performed. […] The bulk starter culture was prepared by fermenting the milk during 6 hours at 30° C. under pH-stat conditions. Ammonia was used to maintain the pH at 6.0-6.2. Samples (1.5 ml) of the cultures were taken after 5 and 6 hours fermentation. The samples were tested to establish the acidification activity of the culture under standard conditions. […] The strains were fermented as described in Example 6. The bulk starter cultures were prepared as described in Example 6 with the proviso that the UHT milk was inoculated with 0.6 wt % cell concentrate. Acid production was measured as described in Example 6 with the proviso that 6 gram sample was taken from the cultures after 5 and 6 hours and added to 200 g UHT milk. The experiment was done with two different strains.

[7] = test system: mesophilic lactic acid bacteria Strain 9; experiment: Acidification activity of bulk starter cultures with yeast extract, iron, manganese and/or molybdate, Strain 9; assay type: cell-based; conditions: YE 0.02 wt %, Fe, Mn, Mo 8 ppm each
Method: as §4

[8] = Strain 3, 2.4 ppm iron + 0.02 wt % yeast extract
[9] = Strain 3, 4.2 ppm iron + 0.02 wt % yeast extract
[10] = Strain 3, 6.0 ppm iron + 0.02 wt % yeast extract
[11] = Strain 4, 2.4 ppm iron + 0.02 wt % yeast extract
[12] = Strain 4, 4.2 ppm iron + 0.02 wt % yeast extract
[13] = Strain 4, 6.0 ppm iron + 0.02 wt % yeast extract
[14] = Strain 5, 2.4 ppm iron + 0.02 wt % yeast extract
[15] = Strain 5, 4.2 ppm iron + 0.02 wt % yeast extract
[16] = Strain 5, 6.0 ppm iron + 0.02 wt % yeast extract

Row | SMILES | Acidification activity [1, 8] | Acidification activity [1, 9] | Acidification activity [1, 10] | Acidification activity [2, 11] | Acidification activity [2, 12] | Acidification activity [2, 13] | Acidification activity [3, 14] | Acidification activity [3, 15] | Acidification activity [3, 16] | Acidification activity ([4]; Strain 1, 2.4 ppm iron + 0.02 wt % yeast extract) | Acidification activity ([4]; Strain 1, 6.0 ppm iron + 0.02 wt % yeast extract) | Acidification activity ([5]; Strain 2, 2.4 ppm iron + 0.02 wt % yeast extract) | Acidification activity ([5]; Strain 2, 6.0 ppm iron + 0.02 wt % yeast extract) | Acidification activity of bulk starter culture (strain 6) | Acidification activity of bulk starter culture (strain 6; strain 6, Fe 0 ppm, Mn 2.4 ppm, 7 hours, 0/0 ppm 1.61) | Acidification activity of bulk starter culture ([6]; Strain 8, 5 hours, no addition 0.64) | Acidification activity of bulk starter culture ([6]; Strain 8, 6 hours, no addition 1.08) | Acidification activity of bulk starter culture ([7]; Strain 9, 5 hours, no addition 0.33) | Acidification activity of bulk starter culture ([7]; Strain 9, 6 hours, no addition 0.43)
1 | O=P([O-])([O-])OP(=O)([O-])[O-].O=P([O-])([O-])OP(=O)([O-])[O-].O=P([O-])([O-])OP(=O)([O-])[O-].[Fe+3].[Fe+3].[Fe+3].[Fe+3] [Iron pyrophosphate, iron pyrophosphate] | 1.45 ΔpH/2.5 h | 1.48 ΔpH/2.5 h | 1.50 ΔpH/2.5 h | 1.48 ΔpH/2.5 h | 1.56 ΔpH/2.5 h | 1.58 ΔpH/2.5 h | 1.25 ΔpH/2.5 h | 1.32 ΔpH/2.5 h | 1.33 ΔpH/2.5 h | – | – | – | – | – | – | – | – | – | –
2 | O=S(=O)([O-])[O-].[Fe+2] [Iron sulphate, iron sulphate] | 1.49 ΔpH/2.5 h | 1.49 ΔpH/2.5 h | 1.51 ΔpH/2.5 h | 1.54 ΔpH/2.5 h | 1.56 ΔpH/2.5 h | 1.57 ΔpH/2.5 h | 1.29 ΔpH/2.5 h | 1.33 ΔpH/2.5 h | 1.35 ΔpH/2.5 h | 1.47 ΔpH/2.5 h | 1.53 ΔpH/2.5 h | 1.77 ΔpH/2.5 h | 1.71 ΔpH/2.5 h | 1.67 ΔpH/2.5 h and 1.66 ΔpH/2.5 h | – | – | – | – | –
3 | O=S(=O)([O-])[O-].[Mn+2] [M, manganese sulphate] | – | – | – | – | – | – | – | – | – | – | – | – | – | – | 1.65 ΔpH/2.5 h | – | – | – | –
4 | [Na+].[Na+].[O]=[Mo](=[O])([O-])[O-] [Mo, sodium molybdate] | – | – | – | – | – | – | – | – | – | – | – | – | – | – | – | 0.73 ΔpH/2.5 h | 1.04 ΔpH/2.5 h | 0.55 ΔpH/2.5 h | 0.79 ΔpH/2.5 h
